Source: publication PMC11952846, “The sterol-regulating human ARV1 binds cholesterol and phospholipids through its conserved ARV1 homology domain” (The Journal of Biological Chemistry, 2025)

Columns and labels:
GST-ARV1-N98 E70A = biological target: T1, GST-ARV1-N98 E70A (Homo sapiens, UniProt Q9H2C2, E70A); experiment: Liposome binding assay, site-directed mutant; settings: PE liposomes
T1 construct: Expresses amino-terminal 98 amino acids of ARV1; made in house; host or cells: E. coli BL21 (pGEX-4T1)
T1 sequence (Q9H2C2 1-98 E70A): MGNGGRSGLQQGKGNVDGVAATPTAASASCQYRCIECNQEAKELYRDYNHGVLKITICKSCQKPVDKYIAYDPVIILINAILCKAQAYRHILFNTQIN

GST-ARV1-N98 K54/K59A = biological target: T2, GST-ARV1-N98 K54/K59A (Homo sapiens, UniProt Q9H2C2, K54A/K59A); experiment: Liposome binding assay, site-directed mutant; settings: PC:PL, sulfatide liposomes
T2 construct: Expresses amino-terminal 98 amino acids of ARV1; made in house; host or cells: E. coli BL21 (pGEX-4T1)
T2 sequence (Q9H2C2 1-98 K54A/K59A): as the sequence (Q9H2C2 1-98 E70A) above, with K54A, K59A, A70E counted along it

liposome binding (GST-ARV1-N98 E70A)	Molecule	liposome binding (GST-ARV1-N98 K54/K59A)
showed binding	phosphatidylethanolamine [PE]	
	CCCCCCCC/C=C\CCCCCCCC(=O)OC[C@H](COP(=O)(O)OCC(O)CO)OC(=O)CCCCCCC/C=C\CCCCCCCC (some centres unmarked) [PG, phosphatidylglycerol]	unable to bind
